The conditions of the series: Crystal; DTA.

Five compounds from the NIST ThermoML archive (doi:10.1016/j.fluid.2019.06.021) can be followed below.

Numbers after ± are expanded uncertainties.

Turning to `CCN(C(=O)N(CC)c1ccccc1)c1ccccc1` [1,3-diethyl-1,3-diphenylurea], the Normal melting temperature turned out to be 72.6 ± 0.9 °C.

Consider `CC(=O)OCCNc1ccc([N+](=O)[O-])cc1` [2-[(4-nitrophenyl)amino]ethanol 1-acetate], for which the Normal melting temperature came to 113.2 ± 0.9 °C.

On to `O=[N+]([O-])c1ccccc1Nc1ccccc1` [2-nitrodiphenylamine], for which the Normal melting temperature was 74.8 ± 0.9 °C.

For `COCCNc1ccc([N+](=O)[O-])cc1` [N-(2-methoxyethyl)-4-nitroaniline], the Normal melting temperature turned out to be 85.8 ± 0.9 °C.

As for `c1ccc(Nc2ccccc2)cc1` [diphenylamine], the Normal melting temperature worked out at 52.5 ± 0.9 °C.
